# Source: paper PMC9310846, “Photoaffinity Capture Compounds to Profile the Magic Spot Nucleotide Interactomes” (Angewandte Chemie (International Ed. in English), 2022)
# T1: ApaH (bis(5′‐nucleosyl)‐tetraphosphatase) (Escherichia coli, UniProt P05637)
# T1 sequence (P05637 1-280): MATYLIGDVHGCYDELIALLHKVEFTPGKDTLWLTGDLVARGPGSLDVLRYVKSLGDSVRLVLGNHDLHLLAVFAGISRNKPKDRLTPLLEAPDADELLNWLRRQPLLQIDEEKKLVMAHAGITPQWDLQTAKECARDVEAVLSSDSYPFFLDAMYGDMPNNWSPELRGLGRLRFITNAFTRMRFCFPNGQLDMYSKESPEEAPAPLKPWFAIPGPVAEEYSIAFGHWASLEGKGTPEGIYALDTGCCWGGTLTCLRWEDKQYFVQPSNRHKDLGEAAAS
# Assays:
# [1] = target: T1, ApaH (bis(5′‐nucleosyl)‐tetraphosphatase); experiment: inhibition of Ap4A hydrolysis by ApaH; pGpp is also the product of pppGpp cleavage; type: biochemical
# [2] = target: T1, ApaH (bis(5′‐nucleosyl)‐tetraphosphatase); experiment: LC-MS assay of Ap4A hydrolysis by […] ApaH; type: biochemical
# [3] = target: T1, ApaH (bis(5′‐nucleosyl)‐tetraphosphatase); experiment: LC-MS assay of Ap4A hydrolysis by […] ApaH; pppGpp is also hydrolysed to pGpp (KM […]); type: biochemical
# [4] = substrate: Nc1nc2c(ncn2[C@@H]2O[C@H](COP(=O)(O)OP(=O)(O)OP(=O)(O)O)[C@@H](O)[C@H]2O)c(=O)[nH]1; experiment: purified protein; type: biochemical, Escherichia coli; details: Co2+
molecule,measurement,setting,value
Nc1nc2c(ncn2[C@@H]2O[C@H](COP(=O)(O)O)[C@@H](OP(=O)(O)OP(=O)(O)O)[C@H]2O)c(=O)[nH]1 [pGpp],IC50,[1],190 ± 30 µM
Nc1nc2c(ncn2[C@@H]2O[C@H](COP(=O)(O)OP(=O)(O)O)[C@@H](OP(=O)(O)OP(=O)(O)O)[C@H]2O)c(=O)[nH]1 [ppGpp],IC50,[2],21 ± 7 µM
Nc1nc2c(ncn2[C@@H]2O[C@H](COP(=O)(O)OP(=O)(O)OP(=O)(O)O)[C@@H](OP(=O)(O)OP(=O)(O)O)[C@H]2O)c(=O)[nH]1 [pppGpp],IC50,[3],8 ± 3 µM
ApaH (bis(5′‐nucleosyl)‐tetraphosphatase) (Escherichia coli K-12) (protein) MATYLIGDVHGCYDELIALLHKVEFTPGKDTLWLTGDLVARGPGSLDVLRYVKSLGDSVRLVLGNHDLHLLAVFAGISRNKPKDRLTPLLEAPDADELLNWLRRQPLLQIDEEKKLVMAHAGITPQWDLQTAKECARDVEAVLSSDSYPFFLDAMYGDMPNNWSPELRGLGRLRFITNAFTRMRFCFPNGQLDMYSKESPEEAPAPLKPWFAIPGPVAEEYSIAFGHWASLEGKGTPEGIYALDTGCCWGGTLTCLRWEDKQYFVQPSNRHKDLGEAAAS,Km,[4],13 ± 5 µM
